Experimental findings from patent US20250214977A1, “STAT6 INHIBITORS AND USES THEREOF” (Kymera Therapeutics, Inc., priority 2024, published 2025) are described below.

The assay relates to Phosphorylation of STAT6 in human A549 cells. In words: Phosphorylated STAT6 (pSTAT6) flow cytometry assay in human A549 cells. Format: cell-based. The note with it: read-out: STAT6 IL4 pSTAT6 assay in A549 cells: Average IC50. The source says:
Example 3. Phosphorylated STAT6 (pSTAT6) Flow Cytometry Assay in Human A549 Cells
Phosphorylation of STAT6 in human A549 cells was quantitatively measured using flow cytometry technology.
Background: Flow cytometry measures light scatter and fluorescence of single cells or particles in a stream.

Where “and” joins values, the source holds several entries; their conditions need not be identical. Equal values may be shown once.

For the compound `COc1cc2ncnc(N3CCN(C(=O)c4cc5c(-c6ccccc6OC)cc(C6=CCCN(C(=O)CCn7ccnn7)C6)c(F)c5[nH]4)CC3)c2cc1O` [Example I-955], the IC50 is less than 0.1 µM. With `CCc1cc(C)ncc1-c1cc(C2=CCCN(C(=O)CC(=O)O)C2)c(F)c2[nH]c(C(=O)N3Cc4cnn(CC)c4C3)cc12` [Example I-788] the figure was less than 0.1 µM; with `COc1ccccc1-c1cc(C2=CCCN(C(=O)CCn3ccnn3)C2)c(F)c2[nH]c(C(=O)N3CCN(c4ccc5ccccc5c4OC)CC3)cc12` [Example I-956], 1 to 10 µM; with `COc1cc(F)cnc1N1CCN(C(=O)c2cc3c(C4=CCC(F)(F)CC4)cc(C4=CCCN(C(=O)CCn5ccnn5)C4)c(F)c3[nH]2)CC1` [Example I-1158], less than 0.1 µM. The value for `CN(C)C(=O)c1cc2cc(C3=CCCN(C(=O)CCn4ccnn4)C3)cc(CN3CC(N)C3)c2o1` [Example I-1180] was less than 0.1 µM.

As for `Cc1ccc(Cl)c(-c2cc(C3=CCCN(C(=O)CCn4ccnn4)C3)cc3[nH]c(C(=O)N(C)C)cc23)c1` [Example I-1061], the IC50 is less than 0.1 µM. Turning to `COc1ccccc1-c1cc(C2=CCCN(C(=O)CCn3cccn3)C2)c(F)c2[nH]c(C(=O)N3CCN(c4cc5cc[nH]c5nc4C#N)CC3)cc12` [Example I-494], the 50% inhibitory concentration (IC50) is more than 100 µM.

In the case of `COc1cc(F)cnc1N1CCN(C(=O)c2cc3c(Cl)cc(C4=CCCN(C(=O)CCn5ccnn5)C4)c(F)c3[nH]2)CC1` [Example I-499], the IC50 fell in the range of 10 to 100 µM.

Consider `COc1ccccc1-c1cc(C2=CCCN(C(=O)CCn3ccnn3)C2)c(F)c2[nH]c(C(=O)N3CCN(c4cc5ccccc5nc4O)CC3)cc12` [Example I-952], for which the IC50 was less than 0.1 µM. With `CCCN(C)C(=O)c1cc2cc(C3=CCCN(C(=O)CCn4ccnn4)C3)ccc2o1` [Example I-817] the figure was 0.1 to 1 µM. With `COc1ccccc1-c1cc(C2=CCCN(C(=O)CCn3ccnn3)C2)c(F)c2[nH]c(C(=O)N3CCN(c4cnc5ncccn45)CC3)cc12` [Example I-1017] the figure was less than 0.1 µM.

Regarding `CCCCCCc1cc(C2=CCCN(C(=O)CCn3ccnn3)C2)c(F)c2[nH]c(C(=O)N3CCN(c4ncc(F)cc4OC)CC3)cc12` [Example I-695], the IC50 was more than 100 µM. The value for `COc1cc(F)cnc1N1CCN(C(=O)c2cc3c(-c4cccc(CO)c4C)cc(C4=CCCN(C(=O)CCn5ccnn5)C4)c(F)c3[nH]2)CC1` [Example I-616] was more than 100 µM; that for `COc1ccccc1-c1cc(C2=CCCN(C(=O)CCn3ccnn3)C2)c(F)c2[nH]c(C(=O)N3CCN(c4cnc5nccnc5c4C)CC3)cc12` [Example I-944] was less than 0.1 µM. With `COc1cc(F)cnc1N1CCN(C(=O)c2cc3c(/C=C/CCl)cc(C4=CCCN(C(=O)CCn5ccnn5)C4)c(F)c3[nH]2)CC1` [Example I-1162] the figure was 1 to 10 µM; with `COc1ccccc1-c1cc(C2=CCCN(C(=O)CCn3ccnn3)C2)c(F)c2[nH]c(C(=O)N3CCc4cccnc43)cc12` [Example I-848], less than 0.1 µM; with `COc1ccc(NC(=O)c2cc3c(-c4ccccc4OC)cc(C4=CCCN(C(=O)CCn5ccnn5)C4)c(F)c3[nH]2)cn1` [Example I-979], 0.1 to 1 µM. In the case of `COc1ccccc1-c1cc(C2=CCCN(C(=O)CCn3ccnn3)C2)c(F)c2[nH]c(C(=O)N3CCN(c4c(O)ccc5ccccc45)CC3)cc12` [Example I-965], the half-maximal inhibitory concentration (IC50) fell in the range of 0.1 to 1 µM. With `COc1ccccc1-c1cc(C2=CCCN(C(=O)CCn3ccnn3)C2)c(F)c2[nH]c(C(=O)N3CCN(C4CC4)CC3)cc12` [Example I-325] the figure was less than 0.1 µM; with `CCOc1ccc(-c2cc(C3=CCCN(C(=O)CCn4ccnn4)C3)c(F)c3[nH]c(C(=O)N4CCN(c5ncc(F)cc5OC)CC4)cc23)c(OCC)c1` [Example I-618], less than 0.1 µM.

As for `CN(C)C(=O)c1cc2cc(C3=CCCN(C(=O)CCn4ccnn4)C3)cc(-c3ccc4cncnc4c3)c2o1` [Example I-1089], the IC50 was less than 0.1 µM. Turning to `CN(C)C(=O)c1cc2c(C3CCCCC3)cc([C@H]3CCCN(C(=O)CCn4cccn4)C3)c(F)c2[nH]1` [Example I-840], the IC50 is less than 0.1 µM.

On to `COc1ccccc1-c1cc(C2=CCCN(C(C)=O)C2)c(F)c2cc(C(=O)N(C)C)oc12` [Example I-1104], for which the IC50 is 0.1 to 1 µM.

Regarding `CCn1ncc2c1CN(C(=O)c1cc(C3=CCCCC3)c3c(c1)cc(C1=CCCN(C(=O)CCn4ccnn4)C1)n3CC1CC1)C2` [Example I-765], the IC50 is less than 0.1 µM. With `CN(C)C(=O)c1ccc2c(c1)cc(C1=CCCN(C(=O)CCn3ccnn3)C1)n2CC1CC1` [Example I-1096], the IC50 was less than 0.1 µM.

With `COc1cccc(C2=CCN(C(=O)c3cc4c(-c5cnccc5OC)cc(C5=CCCN(C(=O)CCn6ccnn6)C5)c(F)c4[nH]3)CC2)n1` [Example I-443], the IC50 is less than 0.1 µM. With `COc1ccccc1-c1cc(C2=CCCN(C(=O)CCn3ccnn3)C2)c(F)c2[nH]c(C(=O)N3CCN(c4ncccc4C(F)(F)F)CC3)cc12` [Example I-329] the figure was less than 0.1 µM; with `CCc1ccncc1-c1cc(C2=CCCN(C(=O)CCC(=O)O)C2)c(F)c2[nH]c(C(=O)N3CCN(c4ncc(F)cc4OC)CC3)cc12` [Example I-1170], 0.1 to 1 µM; with `COc1cc(F)cnc1N1CCN(C(=O)c2cc3c(-c4ccc(-c5ccncc5)cc4)cc(C4=CCCN(C(=O)CCn5ccnn5)C4)c(F)c3[nH]2)CC1` [Example I-1118], less than 0.1 µM.

Turning to `COc1ccccc1-c1cc(C2=CCCN(C(=O)CCn3ccnn3)C2)c(F)c2[nH]c(C(=O)N3CCN(c4cccnc4OC)CC3)cc12` [Example I-347], the IC50 was less than 0.1 µM. With `CNc1ccc(-c2cc([C@H]3CCCN(C(=O)CCn4ccnn4)C3)cc3[nH]c(C(=O)N(C)C)cc23)c(OC)c1` (single isomer, unassigned) [Example I-1194] the figure was less than 0.1 µM. With `COc1cc(F)cnc1N1CCN(C(=O)c2cc3c(C4=CCCCC4)cc(C4=CCCN(C(=O)CCn5ccnn5)C4)c(F)c3[nH]2)CC1` [Example I-1135] the figure was less than 0.1 µM. With `CCc1cc(C)ncc1-c1cc(C2=CCCN(C(=O)C(C)C(=O)O)C2)c(F)c2[nH]c(C(=O)N3CCN(c4ncc(F)cc4OC)CC3)cc12` (stereo not shown) [Example I-808, 3-(3-(4-(4-ethyl-6-methylpyridin-3-yl)-7-fluoro-2-(4-(5-fluoro-3-methoxypyridin-2-yl)piperazine-1-carbonyl)-1H-indol-6-yl)-5,6-dihydropyridin-1(2H)-yl)-2-methyl-3-oxopropanoic acid] the figure was 0.1 to 1 µM and < 0.1 µM. Regarding `CCn1nccc1-c1cc(C2=CCCN(C(C)=O)C2)c(F)c2[nH]c(C(=O)N3Cc4cnn(CC)c4C3)cc12` [Example I-1176], the IC50 is less than 0.1 µM. As for `COc1ccccc1-c1cc(C2=CCCN(C(=O)CCn3ccnn3)C2)c(F)c2[nH]c(C(=O)N3CCN(c4cnccc4OC)CC3)cc12` [Example I-465], the 50% inhibitory concentration (IC50) is more than 100 µM.

With `COc1ccccc1-c1cc(C2=CCCN(C(=O)CCn3ccnn3)C2)c(F)c2[nH]c(C(=O)N3CCNC(=O)CC3)cc12` [Example I-983], the IC50 was less than 0.1 µM. The value for `COc1cc(N(C)C)ccc1-c1cc(C2=CCCN(C(=O)CCn3ccnn3)C2)c(F)c2[nH]c(C(=O)N3CCN(c4ncc(Cl)cc4OC)CC3)cc12` [Example I-1039] was less than 0.1 µM; that for `COc1ccncc1-c1cc(C2=CCCN(C(=O)CCn3ccnn3)C2)c(F)c2[nH]c(C(=O)N3CCN(c4ncc(C(C)C)cc4OC)CC3)cc12` [Example I-454] was less than 0.1 µM; that for `COc1ccccc1-c1cc(C2=CCCN(C(=O)CCn3ccnn3)C2)c(F)c2[nH]c(C(=O)N3CC4CCN(Cc5ccccc5)C4C3)cc12` (stereo not shown) [Example I-987] was 1 to 10 µM. As to `COc1ccncc1-c1cc(C2=CCCN(C(C)=O)C2)c(F)c2[nH]c(C(=O)N(C)C)cc12` [Example I-1094], the IC50 is less than 0.1 µM.

On to `CCOc1cccnc1N1CCN(C(=O)c2cc3c(-c4ccccc4OC)cc(C4=CCCN(C(=O)CCn5ccnn5)C4)c(F)c3[nH]2)CC1` [Example I-335], for which the IC50 was less than 0.1 µM. The value for `COc1cc(F)cnc1N1CCN(C(=O)c2cc3c(-c4ccc(OC5CCOCC5)cc4)cc(C4=CCCN(C(=O)CCn5ccnn5)C4)c(F)c3[nH]2)CC1` [Example I-1111] was less than 0.1 µM. The value for `COc1cccc(N2CCN(C(=O)c3cc4c(-c5cc(F)cc(F)c5OC)cc(C5=CCCN(C(=O)CCn6ccnn6)C5)c(F)c4[nH]3)CC2)n1` [Example I-591] was less than 0.1 µM; that for `CCc1ccccc1-c1cc(C2=CCCN(C(=O)CCn3cccn3)C2)c(F)c2[nH]c(C(=O)N3CCN(c4ncc(F)cc4OC)CC3)cc12` [Example I-662] was less than 0.1 µM.

With `CCc1cnccc1-c1cc(C2=CCCN(C(C)=O)C2)c(F)c2[nH]c(C(=O)N3Cc4cnn(C)c4C3)cc12` [Example I-705], the IC50 fell in the range of 10 to 100 µM. For `CCc1cc(C)ncc1-c1cc(C2=CCCN(C(=O)CCn3ccnn3)C2)c(F)c2[nH]c(C(=O)N3CCN(c4nc(C)c(F)cc4OC)CC3)cc12` [Example I-737], the IC50 is less than 0.1 µM. With `COc1ccccc1-c1cc(C(=O)N2Cc3cnn(C)c3C2)cc2cc(C3=CCCN(C(=O)CCn4ccnn4)C3)n(CC3CC3)c12` [Example I-736] the figure was less than 0.1 µM.

With `CCn1ncc2c1CN(C(=O)c1cc(-c3ccccc3OC)c3c(c1)cc(C1=CCCN(C(=O)CCn4ccnn4)C1)n3CC1CC1)C2` [Example I-530], the IC50 was less than 0.1 µM. The value for `COc1ccncc1-c1cc(C2=CCCN(C(=O)CCn3ccnn3)C2)c(F)c2[nH]c(C(=O)N3CCN(c4nc(C)c(F)cc4OC)CC3)cc12` [Example I-500] was more than 100 µM.

With `CCc1cnccc1-c1cc(C2=CCCN(C(=O)CCn3ccnn3)C2)c(F)c2[nH]c(C(=O)N3CCN(c4ncccc4OC)CC3)cc12` [Example I-608], the IC50 is more than 100 µM.

For the compound `COc1ccccc1-c1cc(C2=CCCN(C(=O)CCn3ccnn3)C2)c(F)c2[nH]c(C(=O)N3CCN(Cc4ccccc4)CC3)cc12` [Example I-1202], the half-inhibitory concentration (IC50) is less than 0.1 µM.

Consider `CCc1nc(C)ncc1-c1cc(C2=CCCN(C(=O)CCn3ccnn3)C2)c(F)c2[nH]c(C(=O)N3Cc4cnn(CC)c4C3)cc12` [Example I-764], for which the IC50 is less than 0.1 µM.

A word on the IC50: it is the concentration that gives 50% inhibition.
